The values that follow come from article PMC9738565, “N1-Benzyl Tryptamine Pan-SHIP1/2 Inhibitors: Synthesis and Preliminary Biological Evaluation as Anti-Tumor Agents” (Molecules, 2022).

Marks after values point to notes of the source that are not given here.

One series relates to multiple myeloma. Set-up: method as in PMID 22033675. The settings on record: xenogeneic multiple myeloma model in mice; cited from earlier work.
Series [1] relates to human blood cell cancers that express SHIP1. Set-up: method as in PMID 20200281, PMID 22033675. The conditions noted are these: cited from earlier work.
For series [2], the target named is T1, SHIP2 (Homo sapiens, UniProt O15357).
T1 construct: purchased Echelon Biosciences
T1 sequence (O15357 1-1258): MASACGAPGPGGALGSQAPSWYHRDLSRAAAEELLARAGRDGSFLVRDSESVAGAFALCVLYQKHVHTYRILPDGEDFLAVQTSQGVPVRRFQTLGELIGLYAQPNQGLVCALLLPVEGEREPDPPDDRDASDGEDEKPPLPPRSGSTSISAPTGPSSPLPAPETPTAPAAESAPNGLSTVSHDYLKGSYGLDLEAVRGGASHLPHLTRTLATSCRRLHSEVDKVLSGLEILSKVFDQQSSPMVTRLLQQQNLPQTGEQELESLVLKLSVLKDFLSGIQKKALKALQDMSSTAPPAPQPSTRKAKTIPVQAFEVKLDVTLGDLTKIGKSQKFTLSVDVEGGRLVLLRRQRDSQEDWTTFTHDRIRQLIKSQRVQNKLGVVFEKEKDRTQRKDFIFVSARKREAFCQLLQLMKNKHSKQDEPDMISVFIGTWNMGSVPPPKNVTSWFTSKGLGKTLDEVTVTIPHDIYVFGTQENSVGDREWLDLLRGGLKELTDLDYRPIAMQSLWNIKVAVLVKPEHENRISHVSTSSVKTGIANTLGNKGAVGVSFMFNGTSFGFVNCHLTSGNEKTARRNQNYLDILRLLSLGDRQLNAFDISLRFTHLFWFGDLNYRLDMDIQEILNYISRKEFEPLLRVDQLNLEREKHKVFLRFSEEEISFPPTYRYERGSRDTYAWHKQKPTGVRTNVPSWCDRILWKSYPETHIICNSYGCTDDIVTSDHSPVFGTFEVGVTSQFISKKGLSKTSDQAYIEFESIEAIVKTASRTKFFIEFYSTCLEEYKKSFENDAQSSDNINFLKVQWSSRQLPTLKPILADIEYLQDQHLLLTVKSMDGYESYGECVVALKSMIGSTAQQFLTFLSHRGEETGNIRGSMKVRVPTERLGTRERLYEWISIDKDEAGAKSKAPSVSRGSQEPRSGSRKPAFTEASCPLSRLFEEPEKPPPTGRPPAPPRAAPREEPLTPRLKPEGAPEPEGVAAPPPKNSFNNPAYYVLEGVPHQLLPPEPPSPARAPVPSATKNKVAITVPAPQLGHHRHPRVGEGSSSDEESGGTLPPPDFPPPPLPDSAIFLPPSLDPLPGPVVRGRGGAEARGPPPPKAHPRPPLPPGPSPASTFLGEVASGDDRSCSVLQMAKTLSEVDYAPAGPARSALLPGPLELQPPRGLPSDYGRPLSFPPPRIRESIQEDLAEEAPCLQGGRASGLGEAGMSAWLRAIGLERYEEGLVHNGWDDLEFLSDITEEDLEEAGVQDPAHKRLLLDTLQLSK
The experiment in a line: Malachite green phosphatase release assay, SHIP2. In kind it is biochemical. The conditions noted are these: for inhibition at 250 µM: 250 µM compound, read-out: Malachite (250 µM) % Inhib. SHIP2; for inhibition at 500 µM: 500 µM compound, read-out: Malachite (500 µM) % Inhib. SHIP2; for activity against SHIP2 (in words): summary of Table 1. The method, then:
(§1) These compounds were then tested for their activity against the two SHIP paralogs, SHIP1 and SHIP2 in the colorimetric malachite green phosphatase assay. The malachite green assay detects the amount of free phosphate produced from enzymatic reactions with SHIP and an inositol phospholipid substrate.
(§2) 4.7. Malachite Green Phosphatase Release Assays
(§3) Malachite green assays to monitor phosphatase release (Echelon Biosciences) were performed with recombinant human truncated SHIP1 (tSHIP1) and SHIP2 (Echelon Biosciences). Serial dilutions of the compounds dissolved in DMSO were added to the recombinant enzymes diluted in reaction buffer Rx (50 mM Hepes pH 7.4, 150 mM NaCl, 1 mM MgCl2, 0.25 mM EDTA) in triplicate reaction wells in 96-well plates. After incubation for 2 min at room temperature, 2.5 µL of 1 mM phosphatidylinositol 3,4,5-trisphosphate diC8 (PI(3,4,5)P3-diC8, Echelon Biosciences) was added to each reaction to a final concentration of 100 µM in a final volume of 25 µL /well. Following a 20 min incubation at 37 °C, 100 µL of Malachite Green solution (Echelon Biosciences) was added to each well and the plates were incubated at room temperature in the dark for 15 min. Plates were then read at 620 nm on a plate reader (Synergy 2, BioTek, Santa Clara, CA, USA). In addition, 3α-Aminocholestane, a known SHIP1 inhibitor, and AS1949490, a known SHIP2 inhibitor, were used as positive controls.

The target in the next series is T2, tSHIP1 (Homo sapiens, UniProt Q92835).
T2 sequence (Q92835 399-715 limits assumed): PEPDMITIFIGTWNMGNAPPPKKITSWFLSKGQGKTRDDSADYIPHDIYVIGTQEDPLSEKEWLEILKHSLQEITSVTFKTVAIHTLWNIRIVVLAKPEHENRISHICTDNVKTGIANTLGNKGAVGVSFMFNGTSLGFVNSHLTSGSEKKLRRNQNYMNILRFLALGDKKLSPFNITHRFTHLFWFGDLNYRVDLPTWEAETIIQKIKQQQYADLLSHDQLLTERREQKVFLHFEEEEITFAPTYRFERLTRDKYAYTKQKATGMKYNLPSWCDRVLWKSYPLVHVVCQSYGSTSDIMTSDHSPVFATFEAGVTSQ
Description: Fluorescence Polarization (FP) assay for the detection of PI(3,4)P2, SHIP1. The series is classed as biochemical. The settings on record: FP assay; read-out: IC50 SHIP1 (Via FP). The method, then: as §1
4.8. Fluorescence Polarization (FP) Assays for the Detection of PI(3,4)P2
The FP Assay for the detection of PI(3,4)P2 (Echelon Biosciences) was performed using tSHIP1 [48] with serial dilutions of the tryptamines in DMSO according to the manufacturer’s recommendation as previously described. […] 40 µL of 4 µM PIP3 (PI(3,4,5)P3-diC8) in Rx buffer is added to each reaction and incubated at 37 °C for 20 min, followed by heat inactivation for 3 min at 95 °C. Reactions were spun down briefly and 10 µL of each reaction was added in 6 replicate wells to a black 384-well plate provided with the FP kit. 10 µL of 1X reconstituted Detector (a phosphoinositide binding protein) in PBS is then added to each well, followed by 5 µL of 1X freshly diluted Probe (in PBS, a fluorophore-labeled phosphoinositide) protected from light. Assay plates are gently tapped to mix, the plate is sealed and spun down briefly and the reaction is allowed to equilibrate for 60 min at room temperature protected from light.

Series [3] relates to recombinant human truncated SHIP1 (tSHIP1). The experiment in a line: Malachite green phosphatase release assay, SHIP1. The series is classed as biochemical. The settings on record: for Malachite (250 µM) % Inhib. SHIP1: 250 µM compound; for Malachite (500 µM) % Inhib. SHIP1: 500 µM compound; for activity against SHIP1 (in words): summary of Table 1. As to the method:
These compounds were then tested for their activity against the two SHIP paralogs, SHIP1 and SHIP2 in the colorimetric malachite green phosphatase assay. The malachite green assay detects the amount of free phosphate produced from enzymatic reactions with SHIP and an inositol phospholipid substrate. The Malachite assay is useful for ruling out compounds that are fluorescent or have aggregation issues and is inexpensive, so it was utilized as the primary screen even though it is not as sensitive as other assays.
as §2, §3

Series [4] deals with T1, SHIP2. Description: Fluorescence Polarization (FP) assay for the detection of PI(3,4)P2, SHIP2. The settings on record: read-out: IC50 SHIP2 (via FP). The series is classed as biochemical.
The test system of series [5] is leukemia cell lines (NB4, HSB2, K562 and 697-Pre-B), multiple myeloma cell line OPM-2, breast cancer cell lines MBA-MD-231 and MCF-7. The experiment in a line: MTT cell viability assay on cancer cell lines. In kind it is cell-based. The conditions noted are these: Figure 3. The text has this:
. The assay monitors the ability of NADPH-dependent cellular oxidoreductases to reduce the dye MTT (3-(4,5-dimethylthiazol-2-yl)-2,5-diphenyltetrazolium bromide), which when reduced produces a purple color that can be easily quantified. This assay is often used to determine cell viability. […] All of these cell lines express SHIP1 due to their hematopoietic origin, as SHIP1 is selectively expressed in blood and bone marrow cells. Cytotoxicity was also found on the breast cancer cell lines MBA-MD-231 and MCF-7, which is likely due to the inhibition of SHIP2. […]. 4.9. MTT Cell Viability Assay
Cells were treated in triplicate or more with increasing concentrations of the compound. Cell viability was determined with a Cell Counting Kit (Dojindo Molecular Technologies, Rockville, MD, USA) per the manufacturer’s instructions. The […] (OD) of compound-treated cells was divided by the OD of their vehicle control, and the viability was expressed as a percentage of untreated cells. Results are expressed as mean ± standard error of the mean (SEM) of three individual experiments. […]

Series [6] is described as follows: Behaviour of compound when mixed with assay buffer. In kind it is physicochemical. As to the method:
Compounds with modifications of the primary amine of the tryptamine were also tested. […] While SHIP1 agonists may have applications as anti-inflammatories, the agonist activity of 15 was weak and therefore was not further pursued. […] While these analogs may present a path towards selective inhibitors of SHIP2, these compounds will not be useful in determining the effects of pan-SHIP inhibition in tumor models.

Turning to `CC(C)CCC[C@@H](C)[C@H]1CC[C@H]2[C@@H]3CC[C@H]4C[C@H](N)CC[C@]4(C)[C@H]3CC[C@]12C` [Compound 3AC, 3α-aminocholestane], the “protection from multiple myeloma growth” value with multiple myeloma is given as “effective in protecting the majority of mice”. For the same compound, in series [1], the “Akt activation and apoptosis” value was “reduces Akt activation and promotes apoptosis”.

On to `CSc1ccc2c(c1)c(CCN)c(C)n2Cc1ccc(Cl)cc1.Cl` [Compound 7b, 2-(1-(4-Chlorobenzyl)-2-methyl-5-(methylthio)-1H-indol-3-yl)ethanaminium chloride], for which, at SHIP2 [2], the inhibition at 250 µM was 18%, the inhibition at 500 µM amounted to 49% and the “activity against SHIP2 (in words)” value is given as “significant activity”. The IC50 on tSHIP1 turned out to be 11 µM. Further, in series [3], the “Malachite (250 µM) % Inhib. SHIP1” value amounted to 0%, the “Malachite (500 µM) % Inhib. SHIP1” value turned out to be 33% and the “activity against SHIP1 (in words)” value is listed as “significant activity”.

Turning to `CSc1ccc2c(c1)c(CCN)c(C)n2Cc1ccc(Br)cc1.Cl` [Compound 7c, 2-(1-(4-Bromobenzyl)-2-methyl-5-(methylthio)-1H-indol-3-yl)ethanaminium chloride], on SHIP2 [2], the inhibition at 250 µM was found to be 30% and the inhibition at 500 µM came out at 38%. In addition, the IC50 at tSHIP1 turned out to be 51 µM. Besides, in series [3], the “Malachite (250 µM) % Inhib. SHIP1” value worked out at 3% and the “Malachite (500 µM) % Inhib. SHIP1” value stood at 47%. Besides, the 50% inhibitory concentration (IC50) at SHIP2 [4] was determined as 58 µM.

Turning to `CSc1ccc2c(c1)c(CCN)c(C)n2Cc1ccc(Cl)cc1Cl.Cl` [Compound 7d, 2-(1-(2,4-Dichlorobenzyl)-2-methyl-5-(methylthio)-1H-indol-3-yl)ethanaminium chloride], the “cytotoxicity on cancer cell lines (in words)” value in series [5] is “greatest cytotoxicity”. In series [3], the “Malachite (250 µM) % Inhib. SHIP1” value came out at 32%, the “Malachite (500 µM) % Inhib. SHIP1” value stood at 52% and the “activity against SHIP1 (in words)” value was “significant activity”.

For `CSc1ccc2c(c1)c(CCN)c(C)n2Cc1ccccc1.Cl` [Compound 7e, 2-(1-Benzyl-2-methyl-5-(methylthio)-1H-indol-3-yl)ethanaminium chloride], on SHIP2 [2], the inhibition at 250 µM turned out to be 28%, the inhibition at 500 µM came to 39% and the “activity against SHIP2 (in words)” value is on record as “active analog”. The IC50 on tSHIP1 was found to be 13 µM. In series [3], the “Malachite (250 µM) % Inhib. SHIP1” value turned out to be 0%, the “Malachite (500 µM) % Inhib. SHIP1” value amounted to 40% and the “activity against SHIP1 (in words)” value is on record as “active analog”. Besides, at SHIP2 [4], the IC50 came to 12 µM.

For `CSc1ccc2c(c1)c(CCNC(C)=O)c(C)n2Cc1ccccc1Cl` [Compound 16], at SHIP2 [2], the inhibition at 250 µM is 0% and the inhibition at 500 µM turned out to be 0%. Besides, the “solubility behaviour in buffer” value in series [6] is listed as “tended to precipitate when mixed with buffer”. Besides, in series [3], the “Malachite (250 µM) % Inhib. SHIP1” value is given as 25% ^a and the “Malachite (500 µM) % Inhib. SHIP1” value is recorded as 0% ^a.
